What was measured:
Type in all cases: physicochemical
[1] = Lipid nanoparticle size by dynamic light scattering (Malvern Zetasizer Nano ZS); details: LNP: cationic lipid/DSPC/cholesterol/PEG-lipid 50:10:38.5:1.5 with hEPO mRNA
Experimental: (§1) Briefly, a cationic lipid provided herein, DSPC, cholesterol, and PEG-lipid were solubilized in ethanol at a molar ratio of 50:10:38.5:1.5, and mRNA were diluted in 10 to 50 mM citrate buffer, pH=4. The LNPs were prepared at a total lipid to mRNA weight ratio of approximately 10:1 to 30:1 by mixing the ethanolic lipid solution with the aqueous mRNA solution at a volume ratio of 1:3 using a microfluidic apparatus, total flow rate ranging from 9-30 mL/min. Ethanol were thereby removed and replaced by DPBS using dialysis. Finally, the lipid nanoparticles were filtered through a […] sterile filter.
(§2) Lipid nanoparticle size were determined by dynamic light scattering using a Malvern Zetasizer Nano ZS (Malvern UK) using a 173° backscatter detection mode. The encapsulation efficiency of lipid nanoparticles were determined using a Quant-it Ribogreen RNA quantification assay kit (Thermo Fisher Scientific, UK) according to the manufacturer's instructions.

[2] = Apparent pKa of LNP formulations, TNS fluorescence assay; details: LNP cationic lipid/DSPC/cholesterol/DMG-PEG 50/10/38.5/1.5 mol %, pH 3 to 9
Experimental: As reported in literature, the apparent pKa of LNP formulations correlates with the delivery efficiency of LNPs for nucleic acids in vivo. The apparent pKa of each formulation was determined using an assay based on fluorescence of 2-(p-toluidino)-6-napthalene sulfonic acid (TNS). LNP formulations comprising of cationic lipid/DSPC/cholesterol/DMG-PEG (50/10/38.5/1.5 mol %) in PBS were prepared as described above. TNS was prepared as a 300 uM stock solution in distilled water. LNP formulations were diluted to 0.1 mg/ml total lipid in 3 mL of buffered solutions containing 50 mM sodium citrate, 50 mM sodium phosphate, 50 mM sodium borate, and 30 mM sodium chloride where the pH ranged from 3 to 9. An aliquot of the TNS solution was added to give a final concentration of 0.1 mg/ml and following vortex mixing fluorescence intensity was measured at room temperature in a Molecular Devices Spectramax iD3 spectrometer using excitation and mission wavelengths of 325 nm and 435 nm. A sigmoidal best fit analysis was applied to the fluorescence data and the pKa value was measured as the pH giving rise to half-maximal fluorescent intensity.

[3] = Encapsulation efficiency of lipid nanoparticles, Quant-it Ribogreen RNA quantification assay; details: LNP with hEPO mRNA
Experimental: as §1, §2

Compound | polydispersity [1] | size (nm) [1] [nm] | Apparant Pka [2] | Encapsulation Efficiency [3] [%]
CCCCCCCCCCCC(=O)OCC1(COC(=O)CCCCCCCCCCC)CCN(C(=O)CCN2CCCCC2)CC1 [Compound 6] | 0.064 | 100 | 6.85 | 89.2
CCCCCCCCCCCC(=O)OCC1(COC(=O)CCCCCCCCCCC)CCN(C(=O)CCN2CCCC2)CC1 [Compound 5] | 0.112 | 69.83 | 7.67 | 95.4
CCCCCCCCCCCC(=O)OCC1(COC(=O)CCCCCCCCCCC)CCN(CCCO)CC1 [Compound 18] | 0.212 | 105.9 | 7.17 | 94.0
CCCCCCCCCCCC(=O)OCC1(COC(=O)CCCCCCCCCCC)CCN(C(=O)CCN(CCO)CCCCCC)CC1 [Compound 26] | 0.138 | 91.83 | 7.57 | 89.7
CCCCCCCCCCCC(=O)OCC1(COC(=O)CCCCCCCCCCC)CCN(C(=O)CCN(CCO)CCO)CC1 [Compound 4] | 0.199 | 64.29 | 7.18 | 92.8
CCCCCCCCCCCC(=O)OCC1(COC(=O)CCCCCCCCCCC)CCN(C(=O)CCN(CCO)C(C)C)CC1 [Compound 23] | 0.078 | 77.29 | 7.68 | 93.0
CCCCCCCCCCCC(=O)OCC1(COC(=O)CCCCCCCCCCC)CCN(C(=O)CCCN(CC)CCO)CC1 [Compound 35] | 0.261 | 89.42 | 8.02 | 96.0
CCCCCCCCCCCC(=O)OCC1(COC(=O)CCCCCCCCCCC)CCN(CCCCCO)CC1 [Compound 20] | 0.161 | 81.62 | 8.23 | 92.6
CCCCCCCCCCCC(=O)OCC1(COC(=O)CCCCCCCCCCC)CCN(C(=O)CCN(CCCC)CCCC)CC1 [Compound 30] | 0.056 | 92.03 | 6.77 | 80.1
CCCCCCCCCCCC(=O)OCC1(COC(=O)CCCCCCCCCCC)CCN(CCO)CC1 [Compound 1] | 0.096 | 58.53 | 7.30 | 98.8
CCCCCCCCCCCC(=O)OCC1(COC(=O)CCCCCCCCCCC)CCN(C(=O)CCCN2CCCCC2)CC1 [Compound 40] | 0.066 | 84.7 | 9.27 | 92.4
CCCCCCCCCCCCCC(=O)OCC1(COC(=O)CCCCCCCCCCCCC)CCN(C(=O)CCN(CCCCCC)CCCCCC)CC1 [Compound 33] | 0.106 | 87.01 | 6.06 | 89.9
CCCCCCCCCCCCCCCC(=O)OCC1(COC(=O)CCCCCCCCCCCCCCC)CCN(C(=O)CCN(CCCCCC)CCCCCC)CC1 [Compound 34] | 0.127 | 110.4 | 5.90 | 74.0
CCCCCCCCCCCC(=O)OCC1(COC(=O)CCCCCCCCCCC)CCN(CCCCO)CC1 [Compound 19] | 0.137 | 66.82 | 7.93 | 94.5
CCCCCCCCCCCC(=O)OCC1(COC(=O)CCCCCCCCCCC)CCN(C(=O)CCN2CCCCCCC2)CC1 [Compound 8] | 0.227 | 74.14 | 7.58 | 91.6
CCCCCCCCCCCC(=O)OCC1(COC(=O)CCCCCCCCCCC)CCN(C(=O)CCN2CCOCC2)CC1 [Compound 10] | 0.135 | 67.82 | 6.81 | 82.5

The remaining lines, values ahead:

polydispersity [1] | size (nm) [1] [nm] | Apparant Pka [2] | Encapsulation Efficiency [3] [%] | Compound
0.298 | 78.03 | 7.45 | 96.1 | CCCCCCCCCCCC(=O)OCC1(COC(=O)CCCCCCCCCCC)CCN(C(=O)CCCN2CCCCCCC2)CC1 [Compound 42]
0.168 | 84.09 | 8.31 | 99.7 | CCCCCCCCC(CCCCCC)COC(=O)CCCCCC(=O)OCC1(COC(=O)CCCCCC(=O)OCC(CCCCCC)CCCCCCCC)CCN(C(=O)CCN2CCCCCC2)CC1 (stereo not shown) [Compound 54]
0.378 | 109.8 | 11.77 | 102.1 | CCCCCCCCC(CCCCCC)COC(=O)CCCCCC(=O)OCC1(COC(=O)CCCCCC(=O)OCC(CCCCCC)CCCCCCCC)CCN(C(=O)CCCN2CCCCC2)CC1 (stereo not shown) [Compound 59]
0.113 | 82.74 | 7.859 | 97.4 | CCCCCCCCCOC(=O)CCC1(CCC(=O)OCCCCCCCCC)CCN(C(=O)CCN(C)C)CC1 [Compound 63]
0.122 | 120.8 | 6.972 | 94.6 | CCCCCCCC(=O)OCC1(COC(=O)CCCCCCC)CCN(CCO)CC1 [Compound 62]
0.247 | 81.29 | 7.25 | 80.6 | CCCCCCCCC(CCCCCC)COC(=O)CCCCCC(=O)OCC1(COC(=O)CCCCCC(=O)OCC(CCCCCC)CCCCCCCC)CCN(C(=O)CCN2CCOCC2)CC1 (stereo not shown) [Compound 55]
0.276 | 74.16 | 8.80 | 100.4 | CCCCCCCCC(CCCCCC)COC(=O)CCCCCC(=O)OCC1(COC(=O)CCCCCC(=O)OCC(CCCCCC)CCCCCCCC)CCN(C(=O)CCN(CC)CCO)CC1 (stereo not shown) [Compound 57]
0.327 | 86.44 | 10.76 | 97.8 | CCCCC/C=C\C/C=C\CCCCCCCC(=O)OCC1(COC(=O)CCCCCCC/C=C\C/C=C\CCCCC)CCN(C(=O)CCN2CCCC2)CC1 [Compound 50]
0.356 | 97.85 | 13.72 | 102.4 | CCCCCCCCC(CCCCCC)COC(=O)CCCCCC(=O)OCC1(COC(=O)CCCCCC(=O)OCC(CCCCCC)CCCCCCCC)CCN(C(=O)CCCN2CCCC2)CC1 (stereo not shown) [Compound 58]
0.048 | 90.17 | 7.44 | 91.7 | CCCCCCCCC(CCCCCC)COC(=O)CCCCCC(=O)OCC1(COC(=O)CCCCCC(=O)OCC(CCCCCC)CCCCCCCC)CCN(C(=O)CCCN2CCOCC2)CC1 (stereo not shown) [Compound 60]
0.284 | 83.06 | 11.73 | 101.1 | CCCCCCCCC(CCCCCC)COC(=O)CCCCCC(=O)OCC1(COC(=O)CCCCCC(=O)OCC(CCCCCC)CCCCCCCC)CCN(C(=O)CCN(C)CCO)CC1 (stereo not shown) [Compound 56]
0.15 | 90.15 | ~12.82 | 96.1 | CCCCCCCCCCCC(=O)OCC1(COC(=O)CCCCCCCCCCC)CCN(C(=O)CCCN2CCCCCC2)CC1 [Compound 41]

Reference: patent publication US20230053437A1, “LIPID COMPOUNDS AND LIPID NANOPARTICLE COMPOSITIONS” (Suzhou Abogen Biosciences Co., Ltd., priority 2020, published 2023)
